Consider five compounds from patent US20160251350A1, “CRYSTALLINE FORMS OF A PYRROLOPYRIDINE COMPOUND” (Genentech, Inc., priority 2015, published 2016).

In brackets after ≈: the same amount, converted by molar mass.

Series [1] in a line: Hygroscopicity / water re-absorption at controlled relative humidity (DVS). In kind it is physicochemical. From the text:
The present invention is directed, inter alia, to crystalline forms of (R)—N-(4-(3-aminopiperidin-1-yl)-5-bromo-1H-pyrrolo[2,3-b]pyridin-3-yl)cyclopropanecarboxamide and salts, hydrates, and solvates thereof. The crystalline forms of the present invention can be identified by unique solid state signatures with respect to, for example, differential scanning calorimetry (DSC), X-ray powder diffraction (XRPD), and other solid state methods. Further characterization with respect to water or solvent content of the crystalline forms of the present invention can be gauged by any of the following methods for example, thermogravimetric analysis (TGA), DSC and the like. For DSC, it is known that the temperatures observed will depend upon sample purity, the rate of temperature change, as well as sample preparation technique and the particular instrument employed. Thus, the values reported herein relating to DSC thermograms can vary by about ±6° C. For desolvation events, DSC thermograms may vary by more than ±6° C. depending on instrument configuration and/or sample quantity. The values reported herein relating to DSC thermograms can also vary by about ±20 joules per gram. For XRPD, the relative intensities of the peaks can vary, depending upon the sample preparation technique, the sample mounting procedure and the particular instrument employed. Moreover, instrument variation and other factors can often affect the 2θ values. Therefore, the peak assignments of diffraction patterns can vary by about ±0.2 ° 2θ. The relative intensities of the reported peaks can also vary. For TGA, the features reported herein can vary by about ±5° C. The TGA features reported herein can also vary by about ±2% weight change due to, for example, sample variation. Further characterization with respect to hygroscopicity of the crystalline form can be gauged by, for example, dynamic vapor sorption (DVS). The DVS features reported herein can vary by about ±5% relative humidity. The DVS features reported herein can also vary by about ±5% weight change.
(R)—N-(4-(3-aminopiperidin-1-yl)-5-bromo-1H-pyrrolo[2,3-b]pyridin-3-yl)cyclopropanecarboxamide di-ethane sulfonic acid salt: (R)—N-(4-(3-aminopiperidin-1-yl)-5-bromo-1H-pyrrolo[2,3-b]pyridin-3-yl)cyclopropanecarboxamide di-ethanesulfonic acid salt hydrate was heated to 130° C. in a DSC apparatus and then cooled to room temperature. […] The physical properties of the non-solvated di-esylate salt of (R)—N-(4-(3-aminopiperidin-1-yl)-5-bromo-1H-pyrrolo[2,3-b]pyridin-3-yl)cyclopropanecarboxamide are summarized in Table 50 below.

Series [2] can be described thus: Oral absorption of PiC formulations versus solution, preclinical pharmacokinetic study. In kind it is in vivo. Conditions: canines, 3 mg/kg, crossover. The procedure: Biological characteristics of (R)—N-(4-(3-aminopiperidin-1-yl)-5-bromo-1H-pyrrolo[2,3-b]pyridin-3-yl)cyclopropanecarboxamide free base (Form A) and maleate salt crystal forms: The oral absorption of the crystal forms described in Examples 4 and 27 as PiC formulations was investigated in a preclinical pharmacokinetic study conducted in canines using a reduced Latin square crossover design at 3 mg/kg to compare the solid formulations to a solution of (R)—N-(4-(3-aminopiperidin-1-yl)-5-bromo-1H-pyrrolo[2,3-b]pyridin-3-yl)cyclopropanecarboxamide.

A short description of series [3]: Powder-in-Capsule (PiC) formulation stability. The format is physicochemical. The conditions noted are these: 15 mg in Size 0 hard gelatin capsules, 2-months at 5° C., ambient and accelerated conditions. Here is the method: (§1) Chemical characteristics of (R)—N-(4-(3-aminopiperidin-1-yl)-5-bromo-1H-pyrrolo[2,3-b]pyridin-3-yl)cyclopropanecarboxamide free base (Form A) and maleate salt crystal forms: The stability of the crystal forms described in Examples 4 and 27 was measured neat as well as in a Powder-in-Capsule (PiC) formulation. The stability as neat powder was measured over a period of 1-year for the free base and 3-months for the maleate salt, under ambient (25° C./60% RH) and accelerated (40° C./75% RH) conditions. […] It should be noted that the maleate salt used in the neat powder stability study contained high levels (˜9% wt./wt.) of residual tetrahydrofuran (THF). The PiC stability using 15 mg of (R)—N-(4-(3-aminopiperidin-1-yl)-5-bromo-1H-pyrrolo[2,3-b]pyridin-3-yl)cyclopropanecarboxamide in Size 0 hard gelatin capsules was carried out over a period of 2-months at 5° C., ambient and accelerated conditions.

The nature of series [4]: Abbreviated excipient compatibility study at 50° C. with 20% H2O added. The format is physicochemical. Conditions: 4 weeks, common diluents and disintegrants. Here is the method: To further investigate the chemical properties of these crystal forms, an abbreviated excipient compatibility study was run at 50° C. with 20% H2O added. The excipients used in the study consisted of common diluents and disintegrants and the study was conducted over a period of 4 weeks.

Series [5] in a line: Aqueous solubility. In kind it is physicochemical.
Series [6] in a line: Neat powder stability under ambient (25° C./60% RH) and accelerated (40° C./75% RH) conditions. The format is physicochemical. The procedure:
as §1

`Cl.Cl.N[C@@H]1CCCN(c2c(Br)cnc3[nH]cc(NC(=O)C4CC4)c23)C1` [Example 29, (R)—N-(4-(3-aminopiperidin-1-yl)-5-bromo-1H-pyrrolo[2,3-b]pyridin-3-yl)cyclopropanecarboxamide di-HCl salt]: the DVS form conversion entry in series [1] (above 80% RH) was “dihydrate form above 80% RH”. Moreover, the DVS hygroscopicity result in series [1] (below 80% RH) is “Non-hygroscopic below 80% RH. Converts to a crystalline”.

Turning to `Br.Br.N[C@@H]1CCCN(c2c(Br)cnc3[nH]cc(NC(=O)C4CC4)c23)C1` [Example 30, (R)—N-(4-(3-aminopiperidin-1-yl)-5-bromo-1H-pyrrolo[2,3-b]pyridin-3-yl)cyclopropanecarboxamide di-HBr salt], in series [1] (below 80% RH), the DVS hygroscopicity entry is given as “Non-hygroscopic below 80% RH. Upon desorption the solids”.

As a reminder, the solubility is the dissolved amount per volume that the medium holds. With `N[C@@H]1CCCN(c2c(Br)cnc3[nH]cc(NC(=O)C4CC4)c23)C1` [Form A, (R)—N-(4-(3-aminopiperidin-1-yl)-5-bromo-1H-pyrrolo[2,3-b]pyridin-3-yl)cyclopropanecarboxamide Form A], the Oral absorption result in series [2] is recorded as “no significant differences in absorption”. In addition, in series [3], the PiC stability result is “did not cause any significant physical or chemical degradation”. The Degradation with excipients entry in series [4] (listed as free base) is “significant degradation with lactose and Ac-Di-Sol® (croscarmellose sodium)”; in series [4] (listed as free base Form A), “more stable with excipients than the maleate salt”. Further, the solubility is 49900 µg/mL (≈ 132 mM) in series [5] (0.1N HCl, simulated gastric fluid); 2400 µg/mL (≈ 6.34 mM) in series [5] (FasSIF pH 6.8); 10200 µg/mL (≈ 27 mM) in series [5] (fessif, FedSIF pH 5); 120 µg/mL (≈ 0.317 mM) in series [5] (water, H2O). In series [6] (1-year, ambient (25° C./60% RH) and accelerated (40° C./75% RH)), the “Stability as neat powder” value was “very good stability with no chiral or achiral degradation observed under any condition”.

Consider `CCS(=O)(=O)O.CCS(=O)(=O)O.N[C@@H]1CCCN(c2c(Br)cnc3[nH]cc(NC(=O)C4CC4)c23)C1` [anhydrate, (R)—N-(4-(3-aminopiperidin-1-yl)-5-bromo-1H-pyrrolo[2,3-b]pyridin-3-yl)cyclopropanecarboxamide di-ethane sulfonic acid salt], for which the Water re-absorption result in series [1] (80% RH) is reported as “re-absorbs water at 80% RH”.

Consider `N[C@@H]1CCCN(c2c(Br)cnc3[nH]cc(NC(=O)C4CC4)c23)C1.O=C(O)/C=C\C(=O)O` [maleate salt, Maleic acid salt of (R)—N-(4-(3-aminopiperidin-1-yl)-5-bromo-1H-pyrrolo[2,3-b]pyridin-3-yl)cyclopropanecarboxamide], for which the Oral absorption entry in series [2] is reported as “no significant differences in absorption”. Moreover, in series [3], the PiC stability entry is listed as “stable”. In series [1] (at 80% RH), the DVS hygroscopicity result is listed as “Non-hygroscopic” and the DVS weight gain worked out at 0.3 % wt./wt. In series [4], the Degradation with excipients result is on record as “significant degradation with all excipients investigated”. Besides, the “Aqueous Solubility” value in series [5] (at pH ≦7) was >10 at pH ≦7 mg/mL. For the same compound, the “Stability as neat powder” value in series [6] (3-months, ambient and accelerated conditions, material contained ~9% wt./wt. residual THF) is reported as “very slight degradation under accelerated conditions”.
